Assay [1] in a line: Expert taster evaluation in beef bouillon. The following applies: base alone: salty, umami, powdery. How it is done:
(§1) Samples were evaluated by expert tasters. Tasters were asked to describe the samples focusing on authentic taste, mouthfeel, fullness, salty-ness, salivation, umami, sweetness, juiciness, richness, long lastingness and fattiness
Comparison in Beef Bouillon
Base is Maggi beef bouillon 1 tablet in 500 ml of hot water

Assay [2] is described as follows: Expert taster evaluation in a mango juice drink. The note with it: 1 ppm in mango juice drink base (8% sucrose, 0.1% citric acid, 1% clear mango juice, mango flavour 0.05%); base alone: fruity mango. How it is done:
as §1
Comparison in a Mango Juice Drink
Base is 8% sucrose, 0.1% citric acid, 1% clear mango juice, proprietary mango flavour @ 0.05%

The nature of assay [3]: Expert taster evaluation in lemon beverage. The note with it: 1 ppm in lemon beverage (water, 7% sucrose, 0.15% citric acid, lemon flavor), base alone: floral, citral. How it is done: as §1
Basis water, 7% sucrose, 0.15% citric acid, proprietary lemon flavor

Assay [4] is described as follows: Expert taster evaluation in orange beverage. The following applies: 1 ppm in orange beverage (water, 7% sugar, 0.1% citric acid, orange flavour 0.06%); base alone: orange, fruity, slightly candy. As for the experimental part:
as §1
Base is water, 7% sugar, 0.1% citric acid, proprietary orange flavour @ 0.06%

[5] abbreviates: 1 ppm in Maggi beef bouillon (1 tablet in 500 ml hot water).

The values that follow come from patent publication US10913922B2, “N-acylated methionine derivatives as food flavoring compounds” (Givaudan S.A., priority 2012, dated 2021).

Entries after “also recorded” stand apart in the source; their conditions may differ.

Consider `CCCCC/C=C\C/C=C\CCCCCCCC(=O)NC(CCSC)C(=O)O` (centres unmarked) [C18:2-met], for which the “taste description by expert tasters” value in assay [1] (setting [5]) is “salivating salty, umami”; in assay [2], “fresh nice juicy”.
`CCCCCCCC/C=C\CCCCCCCC(=O)NC(CCSC)C(=O)O` (centres unmarked) [C18:1-met]: the “taste description by expert tasters” value is “very strong salty impact and aftertaste; also recorded: very strong salty impact and aftertaste, more fatty, mouthfeel, lingering full bodied” in assay [1] (setting [5]); “more peppery, more salty” in assay [1] (25 ppb in Maggi beef bouillon); “more salty, more bouillon taste” in assay [1] (50 ppb in Maggi beef bouillon); “fresh, less floral, very juicy, very authentic” in assay [3]; “sweeter, juicy, salivating” in assay [2]; “very juicy fresh, authentic, juicy” in assay [4].
For the compound `CCCCCCCCCCCCCCCC(=O)NC(CCSC)C(=O)O` (centres unmarked) [C16:0-met], the “taste description by expert tasters” value in assay [1] (setting [5]) is given as “salty, full, nice salivating, lingering”; in assay [2], “fatty, full body, juicy, metallic”; in assay [4] it was “slightly metallic, fresh”.
`CCCCCCCC(=O)N[C@@H](CCSC)C(=O)O` [C8:0-met]: the “taste description by expert tasters” value in assay [1] (setting [5]) is recorded as “more salty, no additional fullness”; in assay [2], “green fresh, no additional body”.
On to `CCCCCC/C=C\CCCC(=O)NC(CCSC)C(=O)O` (centres unmarked) [C12:1-met], for which the “taste description by expert tasters” value in assay [1] (setting [5]) is “more salty”; in assay [3], “fresh, slightly more citral”; in assay [2], “ripe full, more juicy, slightly metallic”; in assay [4] it was “nice orange, fresh”.
